Read-outs that look alike come from different tables or passages of the source.
Key:
Type in all cases: cell-based
PAXF1657 EV = assay: 7-day cellular proliferation assay (CellTiter-Glo), PAXF1657 EV
Method: (§1) In order to identify compounds specific for GRK2, we generated two isogenic cell line pairs of the pancreatic cancer cell line PAXF1657, a pair of cells stably overexpressing GRK2 cDNA or the control empty vector and a cell line pair of PAXF1657 GRK2 knockout clonal cells versus non-targeting control clonal cells.
(§2) Proliferation Assay: Cellular anti-proliferative activity of compounds was assessed by using the pancreatic cancer cell line, PAXF1657, stably overexpressing GRK2 cDNA or the control empty vector, as well as the parental urinary bladder cancer cell line, 5637. In addition, we also took advantage of GRK2 knockout cell lines that were generated via CRISPR. Cell lines were seeded into tissue culture treated, white-walled, 96-well plates at a density of 500 cells/well in RPMI1640 media supplemented with 10% H.I. FBS and penicillin/streptomycin. Plates were incubated overnight at 37° C., 5% CO2 to allow cells to adhere to the wells. GRK2 inhibitors were added to the cells using a 10-point dilution series with a final concentration ranging from 30 μM-0.0002 μM in 0.3% DMSO. At the time of compound addition, a set of plates, that were not treated with compounds, were collected and cell viability was measured using CellTiter-Glo (Promega). CellTiter-Glo reagent was added to the designed plates and luminescence was measuring using a Biotek Synergy plate reader. The compound treated cells were incubated for 3 days at 37° C., 5% CO2. The media was then aspirated from each well and replaced with fresh media containing GRK2 inhibitors. The compound treated cells were then incubated for an additional 4 days at 37° C., 5% CO2. Cell viability was assessed and at end of the 7-day compound treatment by CellTiterGlo.

PAXF1657 KO Clone #4 = assay: 7-day cellular proliferation assay (CellTiter-Glo), PAXF1657 KO Clone #4
Method: as §1, §2

GRK2 = target: T1, GRK2 (Homo sapiens, UniProt P25098); assay: GRK2 Degradation Assay and Western Blot in PAXF1657 cells; design: endogenous in cells; host or cells: PAXF1657
T1 sequence (P25098 1-689): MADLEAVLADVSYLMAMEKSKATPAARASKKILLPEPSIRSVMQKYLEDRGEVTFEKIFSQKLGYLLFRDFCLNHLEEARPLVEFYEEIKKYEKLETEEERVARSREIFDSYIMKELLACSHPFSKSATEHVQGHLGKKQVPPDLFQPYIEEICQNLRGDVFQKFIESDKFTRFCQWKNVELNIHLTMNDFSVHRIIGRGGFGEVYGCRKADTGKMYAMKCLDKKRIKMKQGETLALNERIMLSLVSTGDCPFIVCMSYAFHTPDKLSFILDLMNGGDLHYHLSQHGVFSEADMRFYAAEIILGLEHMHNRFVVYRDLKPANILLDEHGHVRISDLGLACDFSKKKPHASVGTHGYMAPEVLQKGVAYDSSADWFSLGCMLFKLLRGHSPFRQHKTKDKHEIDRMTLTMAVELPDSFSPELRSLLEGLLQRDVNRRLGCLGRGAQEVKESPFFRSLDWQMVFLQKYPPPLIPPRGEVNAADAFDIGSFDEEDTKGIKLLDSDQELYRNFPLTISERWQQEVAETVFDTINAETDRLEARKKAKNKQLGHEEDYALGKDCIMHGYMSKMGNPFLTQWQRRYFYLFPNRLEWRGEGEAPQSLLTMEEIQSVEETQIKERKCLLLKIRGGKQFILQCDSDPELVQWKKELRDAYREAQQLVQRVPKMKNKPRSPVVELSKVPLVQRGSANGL
Method: General Protocol: Degradation Assay and Western Blot. PAXF1657 cells were plated in 6-well, 24-well plates or 60 mm tissue culture treated dishes and incubated at 37° C. until 70% confluency. The media was aspirated, and the cells were treated with fresh media containing the compounds in the concentration range of 0 μM to 10 μM for a period of 6 to 24 hours. At the desired time points the cells were washed twice with cold PBS and lysed with lysis buffer (ice cold PBS+1% NP40 with 1/100 protease/phosphatase inhibitors) on ice for 8 mins followed by sonication at 70% intensity pulses for 10 seconds. The cells were centrifuged at 20000 g for 8 min at 4° C. The supernatants were collected and stored at −80° C.
Samples were mixed with NuPAGE LDS sample buffer and NuPAGE sample reducing buffer (3×), vortexed and heated at 95° C. for 10 min, and then analyzed by SDS-PAGE (NuPAGE 4-12%) followed by transfer to nitrocellulose membrane. […] The membranes were washed three times with TBST and incubated with GRK2 or R-actin antibodies in 5% milk in TBST at 4° C. overnight. The membranes were washed three times with TBST and incubated with anti-mouse IgG-HRP or anti-rabbit IgG-HRP at room temperature for 2 hours in 5% milk in TBST. The membranes were washed three times with TBST and developed with ECL Dura, ECL femto or ECL atto substrates.

[1] = proliferation, read-out: GeoMean IC50 (UM) PAXF1657 EV
[2] = proliferation, read-out: GeoMean IC50 (uM) PAXF1657 KO Clone #4
[3] = Conc 0.3 uM, read-out: Degradation Assay - 3 point: Degradation (%)
[4] = Conc 1 uM, read-out: Degradation Assay - 3 point: Degradation (%)
[5] = Conc 3 uM, read-out: Degradation Assay - 3 point: Degradation (%)
[6] = 168 h, 7-day, read-out: 7-day proliferation assay: IC50 GeoMean (uM) [Cell Line: PAXF1657 EV]
[7] = 168 h, 7-day, read-out: 7-day proliferation assay: IC50 GeoMean (uM) [Cell Line: PAXF1657 KO Clone #4]
[8] = 1 uM, PAXF1657 EV, 24 hrs, read-out: % GRK2 degradation at 1 uM in PAXF1657 EV (24 hrs)
[9] = 3 uM, PAXF1657 EV, 24 hrs, read-out: % GRK2 degradation at 3 uM in PAXF1657 EV (24 hrs)
[10] = read-out: Degradation Assay - 3 point: Degradation (%)

SMILES	inhibition at 0.3 µM (GRK2; [3])	inhibition at 1 µM (GRK2; [4])	inhibition at 3 µM (GRK2; [5])	inhibition at 1 µM (GRK2; [8])	inhibition at 3 µM (GRK2; [9])	IC50 (PAXF1657 EV; [1])	IC50 (PAXF1657 KO Clone #4; [2])	IC50 (PAXF1657 EV; [6])	IC50 (PAXF1657 KO Clone #4; [7])	also measured
Cc1ncsc1-c1ccc(CNC(=O)[C@@H]2C[C@@H](O)CN2C(=O)[C@@H](NC(=O)COCCCOCCCCCOc2ccc3c(c2)[C@H](NC(=O)c2cccc(NCc4nnc(-c5ccncn5)n4C)c2)CCO3)C(C)(C)C)cc1 [Compound D161]	15%	23%	30%			1.56 µM	7.51 µM			
Cn1c(CNc2cccc(C(=O)NCc3cccc(OCCCCCC(=O)NCCOCCOCCOCCC(=O)Nc4cccc5c4CN(C4CCC(=O)NC4=O)C5=O)c3)c2)nnc1-c1ccncn1 (stereo not drawn) [Compound D113]				-6%	0%			> 10 µM	> 10 µM	
Cn1c(CNc2cccc(C(=O)N[C@@H]3CCOc4ccc(OCCCCCCOCCOCCOCCCCCC(=O)N5CCN(c6ccc7c(c6)CN(C6CCC(=O)NC6=O)C7=O)CC5)cc43)c2)nnc1-c1ccncn1 (stereo partly drawn) [Compound D188, N-((4R)-6-(6-(2-(2-(6-(4-(2-(2,6-dioxopiperidin-3-yl)-1-oxoisoindolin-5-yl)piperazin-1-yl)-6-oxohexyloxy)ethoxy)ethoxy)hexyloxy)chroman-4-yl)-3-((4-methyl-5-(pyrimidin-4-yl)-4H-1,2,4-triazol-3-yl)methylamino)benzamide]						1.26 µM	> 30 µM			inhibition at 0.3 µM (GRK2; [10]): 56.9%; inhibition at 1 µM (GRK2; [10]): 67.7%; inhibition at 3 µM (GRK2; [10]): 78.2%
Cc1ncsc1-c1ccc(CNC(=O)[C@@H]2C[C@@H](O)CN2C(=O)[C@@H](NC(=O)CCOCCOCCOCCNC(=O)CCCCOc2cccc(CNC(=O)c3cccc(NCc4nnc(-c5ccncn5)n4C)c3)c2)C(C)(C)C)cc1 [Compound D115]				-14%	-2%			> 10 µM	1 to 10 µM	
C[C@@H](NC(=O)c1cccc(NCc2nnc(-c3ccncn3)n2C)c1)c1cccc(OCCCCCCn2cc(CCC(=O)Nc3cccc4c3CN(C3CCC(=O)NC3=O)C4=O)nn2)c1 (stereo partly drawn) [Compound D159]	10%	46.3%	64.5%			18.2 µM	> 30 µM			
Cn1c(CNc2cccc(C(=O)NCc3cccc(OCCCCCCC(=O)NCCOCCOCCOCCC(=O)Nc4cccc5c4CN(C4CCC(=O)NC4=O)C5=O)c3)c2)nnc1-c1ccncn1 (stereo not drawn) [Compound D114]				32%	15%			> 10 µM	> 10 µM	
Cn1c(CNc2cccc(C(=O)NCc3cccc(OCCCCCCCn4cc(CCCC(=O)Nc5cccc6c5CN(C5CCC(=O)NC5=O)C6=O)nn4)c3)c2)nnc1-c1ccncn1 (stereo not drawn) [Compound D61]				55%	52%			> 10 µM	> 10 µM	inhibition at 0.3 µM (GRK2; 0.3 uM, PAXF1657 EV, 24 hrs, read-out: % GRK2 degradation at 0.3 uM in PAXF1657 EV (24 hrs)): 28%
C[C@@H](NC(=O)c1cccc(NCc2nnc(-c3ccncn3)n2C)c1)c1cccc(OCCCCCCCn2cc(CCCC(=O)Nc3cccc4c3CN(C3CCC(=O)NC3=O)C4=O)nn2)c1 (stereo partly drawn) [Compound D158, N-((1R)-1-(3-(7-(4-(4-(2-(2,6-dioxopiperidin-3-yl)-1-oxoisoindolin-4-ylamino)-4-oxobutyl)-1H-1,2,3-triazol-1-yl)heptyloxy)phenyl)ethyl)-3-((4-methyl-5-(pyrimidin-4-yl)-4H-1,2,4-triazol-3-yl)methylamino)benzamide]	42.9%	65.8%	81.9%			1.71 µM	> 30 µM			

Further lines, with some results ahead:

inhibition at 0.3 µM (GRK2; [3])	inhibition at 1 µM (GRK2; [4])	inhibition at 3 µM (GRK2; [5])	inhibition at 1 µM (GRK2; [8])	inhibition at 3 µM (GRK2; [9])	SMILES	IC50 (PAXF1657 EV; [1])	IC50 (PAXF1657 KO Clone #4; [2])	IC50 (PAXF1657 EV; [6])	IC50 (PAXF1657 KO Clone #4; [7])	also measured
33.3%	57.4%	55.2%			Cn1c(CNc2cccc(C(=O)NCc3ccc(OCCCCCOCCCOCC(=O)Nc4cccc5c4CN(C4CCC(=O)NC4=O)C5=O)cc3)c2)nnc1-c1ccncn1 (stereo not drawn) [Compound D167, N-(4-(5-(3-(2-(2-(2,6-dioxopiperidin-3-yl)-1-oxoisoindolin-4-ylamino)-2-oxoethoxy)propoxy)pentyloxy)benzyl)-3-((4-methyl-5-(pyrimidin-4-yl)-4H-1,2,4-triazol-3-yl)methylamino)benzamide]	2.44 µM	> 30 µM			
-1.61%	35.5%	70.1%			C[C@@H](NC(=O)c1cccc(NCc2nnc(-c3ccncn3)n2C)c1)c1cccc(OCCCCCCn2cc(CCCC(=O)Nc3cccc4c3CN(C3CCC(=O)NC3=O)C4=O)nn2)c1 (stereo partly drawn) [Compound D165]	2.6 µM	> 30 µM			
20%	36.3%	-32.6%			Cc1ncsc1-c1ccc(CNC(=O)[C@@H]2C[C@@H](O)CN2C(=O)C(NC(=O)CCCCCOCCOCCOCCCCCCOc2ccc3c(c2)[C@H](NC(=O)c2cccc(NCc4nnc(-c5ccncn5)n4C)c2)CCO3)C(C)(C)C)cc1 (stereo partly drawn) [Compound D186, (2S,4R)-1-((R)-2-tert-butyl-22-((R)-4-(3-((4-methyl-5-(pyrimidin-4-yl)-4H-1,2,4-triazol-3-yl)methylamino)benzamido)chroman-6-yloxy)-4-oxo-10,13,16-trioxa-3-azadocosane)-4-hydroxy-N-(4-(4-methylthiazol-5-yl)benzyl)pyrrolidine-2-carboxamide]	0.56 µM	5.09 µM			
29.1%	29.5%	21.3%			Cc1ncsc1-c1ccc(CNC(=O)[C@@H]2C[C@@H](O)CN2C(=O)[C@@H](NC(=O)COCCCOCCCCCOc2cccc([C@@H](C)NC(=O)c3cccc(NCc4nnc(-c5ccncn5)n4C)c3)c2)C(C)(C)C)cc1 [Compound D182, (2S,4R)-1-((S)-3,3-dimethyl-2-(2-(3-((5-(3-((R)-1-(3-(((4-methyl-5-(pyrimidin-4-yl)-4H-1,2,4-triazol-3-yl)methyl)amino)benzamido)ethyl)phenoxy)pentyl)oxy)propoxy)acetamido)butanoyl)-4-hydroxy-N-(4-(4-methylthiazol-5-yl)benzyl)pyrrolidine-2-carboxamide]	0.12 µM	10 µM			DC50 (GRK2; PAXF1657, 24 h, read-out: Degradation Assay - Full Dose Response: IC50 (uM) [cell line: PAXF1657, time point: 24 h]): 0.38 µM
12.1%	32.4%	68.1%			C[C@@H](NC(=O)c1cccc(NCc2nnc(-c3ccncn3)n2C)c1)c1cccc(OCCCCCCn2cc(CCCCC(=O)Nc3cccc4c3CN(C3CCC(=O)NC3=O)C4=O)nn2)c1 (stereo partly drawn) [Compound D166]	1.91 µM	> 30 µM			

— patent US20240174637A1, “DEGRADERS OF GRK2 AND USES THEREOF” (Sonata Therapeutics, Inc., priority 2021, published 2024)
